Key:
ST070 ovarian PDX tumors = experiment: In vivo activity against ovarian tumors, ST070; design: species or system mice; conditions: 15.0 mg/kg SIW for two weeks
Experimental: (§1) Mice were maintained and tumor volumes were measures according to Method 3.
(§2) Primary human Ovarian model ST070 fragments (2-4 mm in diameter) were inoculated subcutaneously at the right flank of each mouse. Mice were randomized into experimental groups of 7 mice each and test articles were injected through the lateral tail vein under sterile conditions in a volume of 200 μL of phosphate-buffered saline (PBS).

[1] = test system: Endometrial PDX tumor (ST040); experiment: In vivo activity against endometrial tumors, ST040; design: species or system mice; conditions: 15 mg/kg SIW for two weeks
Experimental: Female Balb/c nu/nu mice were fed ad libitum with folate-deficient chow (Harlan diet #TD01013) for the duration of the experiment. Primary human Endometrial model ST040 fragments (2-4 mm in diameter) were inoculated subcutaneously at the right flank of each mouse. Mice were randomized into experimental groups of 7 mice each and test articles were injected through the lateral tail vein under sterile conditions in a volume of 200 μL of phosphate-buffered saline (PBS). These studies were performed at South Texas Accelerated Research Therapeutics, 4383 Medical Drive, San Antonio, Tex. 78229.
Growth of each s.c. tumor was followed by measuring the tumor two times per week until a volume of 1200 mm^3 was reached. Tumors were measured in two perpendicular directions using Vernier calipers, and their volumes were calculated as 0.5×L×W^2, where L=measurement of longest axis in mm and W=measurement of axis perpendicular to L in mm.

KB tumor = experiment: Antitumor activity in large KB tumor model; type: in vivo, mice; conditions: 0.5 μmol/kg, once a week for two weeks
Experimental: Female Balb/c nu/nu mice were fed ad libitum with folate-deficient chow (Harlan diet #TD01013) for the duration of the experiment. KB tumor cells were inoculated subcutaneously at the right flank of each mouse. Mice were dosed after the tumors reached an average of 100 and 180 mm^3 through the lateral tail vein under sterile conditions in a volume of […] of phosphate-buffered saline (PBS).
Growth of each s.c. tumor was followed by measuring the tumor two times per week. Tumors were measured in two perpendicular directions using Vernier calipers, and their volumes were calculated as 0.5×L×W^2, where L=measurement of longest axis in mm and W=measurement of axis perpendicular to L in mm.

Calf thymus DNA (CT-DNA) = experiment: DNA crosslinking assay (ethidium bromide fluorescence); type: biochemical
Experimental: (§3) Calf thymus DNA (CT-DNA) was combined with increasing concentrations of Conjugate 1 (0.14 to 33.3 pM) or Conjugate 1+/− DTT. CT-DNA+Melphalan was used as a positive control and CT-DNA+DMSO was used as a negative control. These solutions were incubated at 37° C. for 2 hours. The solutions were then mixed with ethidium bromide and incubated for 2 hours at room temperature. Fluorescence (Ex: 535 nm, Em: 605 nm) from these samples was measured on the Fluoroskan II fluorimeter. Next, the samples were heated to 104° C. for 5 minutes, cooled on ice for 5 minutes, kept at RT for 15 minutes and fluorescence measured. % crosslinking of each sample was calculated using the fluorescence values from the positive and negative controls.
as §3, with “5 (1.1” for “1 (0.14”, “75” for “33.3”, “5+/−” for “1+/−”, “DTT.” for “DTT. CT-DNA+Melphalan was used as a positive control and CT-DNA+DMSO was used as a negative control.”

folate receptor = molecular target: T1, folate receptor (Homo sapiens, UniProt P15328); experiment: Relative affinity assay (displacement of [3H]FA bound to FR on KB cells); type: binding; conditions: 100 nmol/L [3H]FA, 1 h at 37° C.
T1 construct: endogenous in cells; host or cells: KB cells
T1 sequence (P15328 25-234): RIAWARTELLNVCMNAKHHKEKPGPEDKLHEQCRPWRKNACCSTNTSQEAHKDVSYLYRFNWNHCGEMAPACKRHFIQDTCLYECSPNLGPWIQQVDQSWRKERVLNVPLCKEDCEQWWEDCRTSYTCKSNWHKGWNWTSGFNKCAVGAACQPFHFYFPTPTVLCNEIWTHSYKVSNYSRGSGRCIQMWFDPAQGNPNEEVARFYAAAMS
Experimental: FR-positive KB cells were seeded in 24-well Falcon plates and allowed to form adherent monolayers (>90% confluent) overnight in FFRPMI/HIFCS. Spent incubation medium was replaced with FFRPMI supplemented with 10% HIFCS and containing 100 nmol/L of [^3H]FA in the absence and presence of increasing concentrations of unlabeled FA or the test conjugate. Cells were incubated for 1 h at 37° C. and then rinsed thrice with 0.5 mL PBS. Five hundred microliters of 1% SDS in PBS were added to each well; after 5 min, cell lysates were collected, transferred to individual vials containing 5 mL of scintillation cocktail, and then counted for radioactivity.
Cells exposed to only the [3H]FA in FFRPMI (no competitor) were designated as negative controls, whereas cells exposed to the [3H]FA plus 1 mmol/L unlabeled FA served as positive controls. Disintegrations per minute (DPM) measured in the latter samples (representing nonspecific binding of label) were subtracted from the DPM values from all samples.

MDA-MB231 cells = experiment: 3H-thymidine incorporation in MDA-MB231 cells; type: cell-based, human; conditions: MDA-MB-231 cells, 100 μM folic acid
Experimental: MDA-MB231 (human breast cancer) cells were seeded in 12-well Falcon plates and allowed to form nearly confluent monolayers overnight in FFRPMI/HIFCS. Designated wells received medium containing 100μM folic acid (nontoxic FR blocker) and were used to determine the targeting specificity. Each well then received increasing concentrations of Conjugate 1 (n=4). Cells were pulsed for 2 h at 37° C., rinsed with medium, and then chased in fresh medium up to 72 h. Spent medium was aspirated and replaced with medium containing [3H]thymidine. Following a 2 h incubation, cells were washed with PBS and then treated with 5% trichloroacetic acid. The trichloroacetic acid was aspirated and cells were solubilized in 0.25 N sodium hydroxide. Each solubilized sample were transferred to scintillation vials containing Ecolume scintillation cocktail and counted in a liquid scintillation counter. Final results were expressed as the percentage of [3H]thymidine incorporation relative to untreated controls and IC50 were values calculated using GraphPad Prism software.

TNBC PDX tumor = experiment: In vivo activity against triple negative breast tumors (FIG. 38); design: species or system mice; conditions: 1.0 μmol/kg SIW for two weeks
Experimental: as §1
as §2, with “TNBC” for “Ovarian”, “ST502 (2-4 mm in diameter) or primary human TNBC model ST738” for “ST070 fragments”

Compound: CC(=O)O[C@H]1C(=O)[C@@]2(C)[C@H]([C@H](OC(=O)c3ccccc3)[C@]3(O)C[C@H](OC(=O)[C@H](O)[C@@H](NC(=O)c4ccccc4)c4ccccc4)C(C)=C1C3(C)C)[C@]1(OC(C)=O)CO[C@@H]1C[C@@H]2O [paclitaxel]
- tumor size compared to untreated control (ST070 ovarian PDX tumors): did not have decreased tumor size
- partial response subjects [1]: 0%

Compound: C=C1C[C@H]2C=Nc3cc(OCCCCCOc4cc5c(cc4OC)C(=O)N4CC(=C)C[C@H]4[C@H](O)N5C(=O)OCC(C)SSC[C@H](NC(=O)[C@H](CC(=O)O)NC(=O)[C@H](CC(=O)O)NC(=O)[C@H](CCCNC(=N)N)NC(=O)[C@H](CC(=O)O)NC(=O)CC[C@H](NC(=O)c4ccc(NCc5cnc6nc(N)[nH]c(=O)c6n5)cc4)C(=O)O)C(=O)O)c(OC)cc3C(=O)N2C1 (some centres unmarked) [Conjugate 1]
- cures (KB tumor): 100%
- DNA crosslinking by reduced form (Calf thymus DNA (CT-DNA); treated with DTT): crosslink with DNA
- DNA crosslinking by intact conjugate (Calf thymus DNA (CT-DNA); without DTT): not able to crosslink DNA
- relative binding affinity toward the folate receptor, fold lower than that of folic acid (folate receptor): ~4.2 fold
- cytotoxic activity in the presence of an excess of free folate (MDA-MB231 cells): significant reduction in activity

Compound: erubulin mesylate
- TNBC PDX tumor size compared to untreated control (TNBC PDX tumor): did not decrease TNBC PDX tumor size

From patent publication US20200323991A1, “PBD CONJUGATES FOR TREATING DISEASES” (ENDOCYTE, INC., priority 2016, published 2020)
